# Target: T1, Gag-Pol polyprotein [588-1027]/[588-1147] (Human immunodeficiency virus 1, UniProt P04585)
# T1 construct: 588-1027; 588-1147
# Assay: HIV-1 RT Assay
# Conditions: pH 8.2; 37 °C
# From the text: The IC50 of reverse transcriptase is the concentration that inhibits 50% of recombinant HIV-1 RT RNA-directed DNA polymerase activity in vitro.
row,Compound,IC50 [µM]
1,"O=C1Nc2c(cc(F)c(F)c2F)C(C#CC2CC2)(C(F)(F)F)O1 (stereo not drawn) [4-(2-cyclopropylethynyl)-6,7,8-trifluoro-4-(trifluoromethyl)-2,4-dihydro-1H-3,1-benzoxazin-2-one]",> 2
2,"O=C1Nc2ccc(-c3ccccc3)cc2C(C#CC2CC2)(C(F)(F)F)O1 (stereo not drawn) [4-(2-cyclopropylethynyl)-6-phenyl-4-(trifluoromethyl)-2,4-dihydro-1H-3,1-benzoxazin-2-one]",> 2
3,"O=C1Nc2c(Cl)cc(Cl)cc2C(C#CC2CC2)(C(F)(F)F)O1 (stereo not drawn) [6,8-dichloro-4-(2-cyclopropylethynyl)-4-(trifluoromethyl)-2,4-dihydro-1H-3,1-benzoxazin-2-one]",> 2
